# ChEMBL document CHEMBL1697731, “Cheminformatics analysis of assertions mined from literature that describe drug-induced liver injury in different species” (Chem Res Toxicol, 2010)
# How the values were obtained:
# Hepatotoxicity [1] = assay: Literature-mined compound from Fourches et al multi-species drug-induced liver injury (DILI) dataset, effect in rodents; conditions: rodentia
# Hepatotoxicity [2] = assay: Literature-mined compound from Fourches et al multi-species drug-induced liver injury (DILI) dataset, effect in non-rodents
# Hepatotoxicity [3] = assay: Literature-mined compound from Fourches et al multi-species drug-induced liver injury (DILI) dataset, effect in humans; conditions: human
Compound,Hepatotoxicity (Hepatotoxicity [1]),Hepatotoxicity (Hepatotoxicity [2]),Hepatotoxicity (Hepatotoxicity [3]),Hepatotoxicity (Hepatotoxicity [1]; Liver),Hepatotoxicity (Hepatotoxicity [2]; Liver),Hepatotoxicity (Hepatotoxicity [3]; Liver)
Cc1cnc(NCCCN(C)C)c2c1[nH]c1ccc3cc(O)ccc3c12 [INTOPLICINE],no drug-induced liver injury reported,no drug-induced liver injury reported,drug-induced liver injury reported,,,
CN1CC[C@H](c2c(O)cc(O)c3c(=O)cc(-c4ccccc4Cl)oc23)[C@H](O)C1 [ALVOCIDIB],no drug-induced liver injury reported,no drug-induced liver injury reported,drug-induced liver injury reported,,,
CC1(C)NC(=O)N(c2ccc([N+](=O)[O-])c(C(F)(F)F)c2)C1=O [NILUTAMIDE],,,,drug-induced liver injury reported,no drug-induced liver injury reported,drug-induced liver injury reported
CCC1=C[C@@H]2CN(C1)Cc1c([nH]c3ccccc13)[C@@](C(=O)OC)(c1cc3c(cc1OC)N(C)[C@H]1[C@@](O)(C(=O)OC)[C@H](OC(C)=O)[C@]4(CC)C=CCN5CC[C@]31[C@@H]54)C2 [VINORELBINE],drug-induced liver injury reported,no drug-induced liver injury reported,drug-induced liver injury reported,,,
CC1(C)S[C@@H]2[C@H](NC(=O)[C@H](N)c3ccccc3)C(=O)N2[C@H]1C(=O)O [AMPICILLIN],drug-induced liver injury reported,no drug-induced liver injury reported,drug-induced liver injury reported,,,
CC(CN1c2ccccc2Sc2ccccc21)N(C)C (centres undefined) [PROMETHAZINE],drug-induced liver injury reported,drug-induced liver injury reported,no drug-induced liver injury reported,,,
N[C@@H](Cc1ccc(O)c(O)c1)C(=O)O [LEVODOPA],drug-induced liver injury reported,no drug-induced liver injury reported,drug-induced liver injury reported,,,
C[C@H](Cn1cnc2c(N)ncnc21)OCP(=O)(O)O [TENOFOVIR ANHYDROUS],no drug-induced liver injury reported,no drug-induced liver injury reported,drug-induced liver injury reported,,,
COC(F)(F)C(Cl)Cl [METHOXYFLURANE],drug-induced liver injury reported,no drug-induced liver injury reported,drug-induced liver injury reported,,,
Cc1ccnc(NS(=O)(=O)c2ccc(N)cc2)n1 [SULFAMERAZINE],drug-induced liver injury reported,no drug-induced liver injury reported,no drug-induced liver injury reported,,,
TYLOXAPOL,drug-induced liver injury reported,no drug-induced liver injury reported,no drug-induced liver injury reported,,,
CS(=O)(=O)O.C[C@H](N)C(=O)N[C@@H](C)C(=O)N[C@H]1[C@@H]2CN(c3nc4c(cc3F)c(=O)c(C(=O)O)cn4-c3ccc(F)cc3F)C[C@@H]21 [ALATROFLOXACIN MESYLATE],no drug-induced liver injury reported,no drug-induced liver injury reported,drug-induced liver injury reported,,,
O=C(CCCCCCC(=O)Nc1ccccc1)NO [VORINOSTAT],drug-induced liver injury reported,no drug-induced liver injury reported,drug-induced liver injury reported,,,
CC(C)Cc1ccc(C(C)C(=O)O)cc1 (centres undefined) [IBUPROFEN],drug-induced liver injury reported,no drug-induced liver injury reported,drug-induced liver injury reported,,,
C[C@]12CCC(=O)C=C1CC[C@@H]1[C@@H]2CC[C@@]2(C)[C@H]1CC[C@]2(C)O (stereo in doubt; form 1) [METHYLTESTOSTERONE],drug-induced liver injury reported,no drug-induced liver injury reported,no drug-induced liver injury reported,,,
Nc1ncnc2c1ncn2[C@@H]1O[C@H](CO)C[C@H]1O [CORDYCEPIN],drug-induced liver injury reported,no drug-induced liver injury reported,no drug-induced liver injury reported,,,
CC1(C)S[C@@H]2[C@H](NC(=O)[C@H](N)c3ccc(O)cc3)C(=O)N2[C@H]1C(=O)O [AMOXICILLIN],no drug-induced liver injury reported,no drug-induced liver injury reported,drug-induced liver injury reported,,,
CC(=O)NO [ACETOHYDROXAMIC ACID],drug-induced liver injury reported,no drug-induced liver injury reported,no drug-induced liver injury reported,,,
Cn1cc([S+](C)[O-])c(=O)c2ccc(F)cc21 (centres undefined) [FLOSEQUINAN],no drug-induced liver injury reported,no drug-induced liver injury reported,drug-induced liver injury reported,,,

Compound,Hepatotoxicity (Hepatotoxicity [1]),Hepatotoxicity (Hepatotoxicity [2]),Hepatotoxicity (Hepatotoxicity [3]),Hepatotoxicity (Hepatotoxicity [1]; Liver),Hepatotoxicity (Hepatotoxicity [2]; Liver),Hepatotoxicity (Hepatotoxicity [3]; Liver)
Cn1c(=O)c2c(ncn2C)n(C)c1=O [CAFFEINE],drug-induced liver injury reported,no drug-induced liver injury reported,drug-induced liver injury reported,,,
CC(=O)O[C@]1(C(C)=O)CC[C@H]2[C@@H]3C=C(Cl)C4=CC(=O)[C@@H]5C[C@@H]5[C@]4(C)[C@H]3CC[C@@]21C [CYPROTERONE ACETATE],drug-induced liver injury reported,no drug-induced liver injury reported,drug-induced liver injury reported,,,
FC(F)OC(F)C(F)(F)F (centres undefined),drug-induced liver injury reported,no drug-induced liver injury reported,drug-induced liver injury reported,,,
Cc1cc2nc3c(=O)[nH]c(=O)nc-3n(C[C@H](O)[C@H](O)[C@H](O)CO)c2cc1C [RIBOFLAVIN],no drug-induced liver injury reported,no drug-induced liver injury reported,drug-induced liver injury reported,,,
C[C@@H]1C[C@H]2[C@@H]3CCC4=CC(=O)C=C[C@]4(C)[C@@]3(F)[C@@H](O)C[C@]2(C)[C@@]1(O)C(=O)CO [DEXAMETHASONE],drug-induced liver injury reported,drug-induced liver injury reported,drug-induced liver injury reported,,,
CC(=O)Nc1ccc(OC(=O)c2ccccc2OC(C)=O)cc1 [BENORILATE],drug-induced liver injury reported,no drug-induced liver injury reported,no drug-induced liver injury reported,,,
CCc1oc2ccccc2c1C(=O)c1ccc(O)cc1 [BENZARONE],drug-induced liver injury reported,no drug-induced liver injury reported,drug-induced liver injury reported,,,
CN(C)CCCN1c2ccccc2CCc2ccccc21 [IMIPRAMINE],drug-induced liver injury reported,no drug-induced liver injury reported,drug-induced liver injury reported,,,
CN(CCCN1c2ccccc2CCc2ccccc21)CC(=O)c1ccc(Cl)cc1 [LOFEPRAMINE],no drug-induced liver injury reported,no drug-induced liver injury reported,drug-induced liver injury reported,,,
CC(C)(Oc1ccc(CCNC(=O)c2ccc(Cl)cc2)cc1)C(=O)O [BEZAFIBRATE],drug-induced liver injury reported,no drug-induced liver injury reported,drug-induced liver injury reported,,,
CC(=O)O [ACETIC ACID],,,,drug-induced liver injury reported,drug-induced liver injury reported,drug-induced liver injury reported
CCCSc1ccc2nc(NC(=O)OC)[nH]c2c1 [ALBENDAZOLE],no drug-induced liver injury reported,no drug-induced liver injury reported,drug-induced liver injury reported,,,
CC(COc1ccccc1)N(CCCl)Cc1ccccc1 (centres undefined) [PHENOXYBENZAMINE],drug-induced liver injury reported,no drug-induced liver injury reported,no drug-induced liver injury reported,,,
CC(C(=O)O)c1ccc(C(=O)c2ccccc2)s1 (centres undefined) [TIAPROFENIC ACID],drug-induced liver injury reported,no drug-induced liver injury reported,no drug-induced liver injury reported,,,
CCCCC[C@H](O)/C=C/[C@H]1[C@H](O)CC(=O)[C@@H]1C/C=C\CCCC(=O)O [DINOPROSTONE],drug-induced liver injury reported,no drug-induced liver injury reported,drug-induced liver injury reported,,,
Nc1ncnc2c1ncn2[C@@H]1O[C@H](COP(=O)(O)OP(=O)(O)OP(=O)(O)O)[C@@H](O)[C@H]1O [ADENOSINE TRIPHOSPHATE],drug-induced liver injury reported,no drug-induced liver injury reported,no drug-induced liver injury reported,,,
COc1ccc2c3c1O[C@H]1C(=O)CC[C@@]4(O)[C@@H](C2)N(C)CC[C@]314.Cl [OXYCODONE HYDROCHLORIDE],,,,drug-induced liver injury reported,no drug-induced liver injury reported,no drug-induced liver injury reported
COc1cc2c(Nc3ccc(Br)cc3F)ncnc2cc1OCC1CCN(C)CC1 [VANDETANIB],no drug-induced liver injury reported,no drug-induced liver injury reported,drug-induced liver injury reported,,,
CC[C@@]1(O)C(=O)OCc2c1cc1n(c2=O)Cc2cc3ccccc3nc2-1 [CAMPTOTHECIN],drug-induced liver injury reported,no drug-induced liver injury reported,drug-induced liver injury reported,,,
